# Like-named read-outs stand apart in the source and are kept apart here.
# Tests used:
# endothelin receptor [1] = target: T1, endothelin receptor (Bos taurus, UniProt P28088); test: Endothelin receptor binding inhibition (125I-endothelin-1), bovine cerebellum membrane fraction (Test Example 1); conditions: read-out: IC₅₀
# T1 construct: the suspension was used as a membrane fraction liquid; from tissue; host or cells: bovine cerebellum membrane fraction
# T1 sequence (P28088 27-441): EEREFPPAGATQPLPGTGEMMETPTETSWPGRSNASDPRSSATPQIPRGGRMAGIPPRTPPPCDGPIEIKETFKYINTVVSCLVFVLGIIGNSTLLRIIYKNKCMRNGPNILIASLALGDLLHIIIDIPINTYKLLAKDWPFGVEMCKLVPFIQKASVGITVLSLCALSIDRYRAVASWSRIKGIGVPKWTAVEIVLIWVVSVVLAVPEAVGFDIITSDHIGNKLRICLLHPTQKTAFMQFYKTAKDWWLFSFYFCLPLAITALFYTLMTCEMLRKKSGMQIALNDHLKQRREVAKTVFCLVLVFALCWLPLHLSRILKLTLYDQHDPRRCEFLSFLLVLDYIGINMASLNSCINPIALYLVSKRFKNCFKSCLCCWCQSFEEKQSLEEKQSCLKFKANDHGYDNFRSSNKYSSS
# Experimental: (§1) The resulting solid substance was prepared as a suspension containing 2 mg/ml of protein, and the suspension was used as a membrane fraction liquid. […]
# endothelin receptor [2] = target: T2, endothelin receptor (Bos taurus, UniProt P21450); test: Endothelin receptor binding inhibition (125I-endothelin-1), bovine lung membrane fraction with RES-701-1 added (Test Example 2); conditions: read-out: IC₅₀
# T2 construct: from tissue
# T2 sequence (P21450 21-427): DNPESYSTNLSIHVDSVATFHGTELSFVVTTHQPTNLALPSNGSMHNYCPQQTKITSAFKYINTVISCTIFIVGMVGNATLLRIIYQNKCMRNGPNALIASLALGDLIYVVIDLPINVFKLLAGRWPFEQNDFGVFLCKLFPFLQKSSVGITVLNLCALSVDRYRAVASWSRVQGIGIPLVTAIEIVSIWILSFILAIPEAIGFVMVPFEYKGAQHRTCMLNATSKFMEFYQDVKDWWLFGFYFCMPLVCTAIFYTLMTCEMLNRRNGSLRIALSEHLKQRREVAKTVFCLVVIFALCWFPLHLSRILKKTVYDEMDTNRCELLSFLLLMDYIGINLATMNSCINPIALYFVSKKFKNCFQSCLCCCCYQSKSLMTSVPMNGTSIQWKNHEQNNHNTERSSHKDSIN
# Experimental: as §1
IC50 (endothelin receptor [1]),IC50 (endothelin receptor [2]),Structure (SMILES),"IC50 (endothelin receptor [1]; Concentration causing 50 % inhibition of endothelin-1 binding, bovine cerebellum tissue membrane fraction, 25°C for 2 hours)","IC50 (endothelin receptor [2]; Concentration causing 50 % inhibition of endothelin-1 binding, bovine lung tissue membrane fraction, RES-701-1 added at […])"
,,COC(=O)[C@H](Cc1c[nH]c2ccccc12)NC(=O)[C@H](Cc1ccc(O)cc1)NC(=O)[C@H](Cc1ccc(O)cc1)NC(=O)[C@H](CC(N)=O)NC(=O)[C@H](Cc1ccccc1)NC(=O)[C@H](Cc1ccccc1)NC(=O)[C@H](Cc1c[nH]c2ccccc12)NC(=O)[C@@H]1CC(=O)NCC(=O)N[C@@H](CC(N)=O)C(=O)N[C@@H](Cc2c[nH]c3ccccc23)C(=O)N[C@@H](Cc2c[nH]cn2)C(=O)NCC(=O)N[C@@H]([C@@H](C)O)C(=O)N[C@@H](C)C(=O)N2CCC[C@H]2C(=O)N1 [(I-1)],[…],0.058 µM
0.049 µM,> 0.49 µM,C[C@@H]1NC(=O)[C@H]([C@@H](C)O)NC(=O)CNC(=O)[C@H](Cc2c[nH]cn2)NC(=O)[C@H](Cc2c[nH]c3ccccc23)NC(=O)[C@H](CC(N)=O)NC(=O)CNC(=O)C[C@@H](C(=O)N[C@@H](Cc2c[nH]c3ccccc23)C(=O)N[C@@H](Cc2ccccc2)C(=O)N[C@@H](Cc2ccccc2)C(=O)N[C@@H](CC(N)=O)C(=O)N[C@@H](Cc2ccc(O)cc2)C(=O)N[C@@H](Cc2ccc(O)cc2)C(=O)N[C@@H](Cc2c[nH]c3ccccc23)C(N)=O)NC(=O)[C@@H]2CCCN2C1=O [(I-3)],,

# — EP0698614A1, “Endothelin-antagonizing peptide” (KYOWA HAKKO KOGYO CO., LTD., priority 1994, dated 1996)
